Data from EP0799188B1, “AMIDES OF MONO AND DICARBOXYLIC ACIDS WITH GLYCOSAMINES, SELECTIVELY ACTIVE ON THE CANNABINOID PERIPHERAL RECEPTOR” (LIFEGROUP S.p.A., priority 1994, dated 1996).
Like-named read-outs stand apart in the source and are kept apart here.

How the values were obtained:
CB2 receptor [1] = target: T1, CB2 receptor (Rattus norvegicus, UniProt Q9QZN9); assay: 3H-WIN 55,212-2 binding displacement on RBL-2H3 cell membranes; conditions: competitor 10 µM; amides in 0.1% DMSO, Anandamide and Nabilone in 0.1% ethanol
T1 construct: 30 µg membrane proteins prepared in item a); endogenous in cells; host or cells: RBL-2H3 cells (plasma membrane preparation)
T1 sequence (Q9QZN9 1-360): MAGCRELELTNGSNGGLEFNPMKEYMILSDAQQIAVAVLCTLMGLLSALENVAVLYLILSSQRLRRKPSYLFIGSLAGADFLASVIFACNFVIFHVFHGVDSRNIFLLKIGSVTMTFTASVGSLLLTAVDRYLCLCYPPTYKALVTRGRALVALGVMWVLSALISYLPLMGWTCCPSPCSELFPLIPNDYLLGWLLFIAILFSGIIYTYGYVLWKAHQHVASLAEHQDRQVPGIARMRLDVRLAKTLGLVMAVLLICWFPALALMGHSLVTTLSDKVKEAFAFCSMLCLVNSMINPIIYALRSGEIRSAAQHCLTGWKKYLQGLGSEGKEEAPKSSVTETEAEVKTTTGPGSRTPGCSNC

CB2 receptor [2] = target: CB2 receptor (Homo sapiens, UniProt P34972); conditions: CB2 versus CB1 central receptor; cited from earlier work
CB2 receptor (Homo sapiens, UniProt P34972), sequence (P34972 whole entry): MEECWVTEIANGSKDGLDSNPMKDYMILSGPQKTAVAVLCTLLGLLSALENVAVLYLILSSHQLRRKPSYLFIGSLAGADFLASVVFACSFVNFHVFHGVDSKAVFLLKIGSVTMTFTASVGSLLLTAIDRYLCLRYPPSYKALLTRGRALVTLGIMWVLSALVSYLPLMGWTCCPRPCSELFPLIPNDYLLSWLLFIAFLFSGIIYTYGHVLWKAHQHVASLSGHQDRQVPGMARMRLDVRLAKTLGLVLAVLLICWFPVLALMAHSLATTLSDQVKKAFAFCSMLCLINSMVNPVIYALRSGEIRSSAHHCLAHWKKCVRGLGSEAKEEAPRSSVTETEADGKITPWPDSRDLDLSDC

[3] = tested on: cerebellar granule cell culture; assay: neuroprotective effect against glutamate-induced cell death (MTT); assay type: cell-based, mouse
RBL-2H3 cells = assay: 3H-serotonin release induced by ADNP/DNP.HSA immunogenic stimulation; assay type: cell-based, rat; conditions: for effect on serotonin release (RBL cells immunogenic activation): statement in words on Table 3
CB2 receptor [4] = target: T1, CB2 receptor; assay: saturation curve of 3H-WIN 55,212-2 binding to RBL-2H3 cell membranes; conditions: 3H-WIN 55,212-2 0.5 to 20 nM, 30 µg membrane proteins, 30°C 60 min

Compound	Displacement (%) (CB2 receptor [1])	Specific binding (CB2 receptor [1])	affinity to the CB2 receptor, folds inferior to that of the central receptor (CB2 receptor [2]) [folds]	EC50 ([3]; glutamate 500 µM for 5 minutes, compound added for 10 minutes, 15 minutes after removing glutamate, MTT after 24 hours, means ± SEM)	protective effect against cell death induced by glutamate ([3]; glutamate 500 µM, anandamide up to 100 µM)	inhibition at 12.5 µM (RBL-2H3 cells; Rattus norvegicus, RBL-2H3, read-out: 3H-serotonin net release inhibition (%), 12.5µM, -WIN) [%]	3H-serotonin net release (%) (RBL-2H3 cells; concentration not given, 0.1% DMSO and 0.1% ethanol)	effect on serotonin release (RBL cells immunogenic activation) (RBL-2H3 cells)	Bmax (CB2 receptor [4]) [pM]	3H-serotonin net release inhibition (%) (RBL-2H3 cells; 30µM, + anandamide (12.5 µM))	3H-serotonin net release inhibition (%) (RBL-2H3 cells; 30µM, -anandamide)	3H-serotonin net release (%) (RBL-2H3 cells; 50µM, 0.1% DMSO and 0.1% ethanol)	3H-serotonin net release inhibition (%) (RBL-2H3 cells; WIN 55,212-2 30 µm, + 12.5µM anandamide)	3H-serotonin net release inhibition (%) (RBL-2H3 cells; WIN 55,212-2 30 µm, + 12.5µM arachidonic acid)	3H-serotonin net release inhibition (%) (RBL-2H3 cells; WIN 55,212-2 30 µm, + 12.5µM ethanolamide + 12.5µM arachidonic acid)	3H-serotonin net release inhibition (%) (RBL-2H3 cells; WIN 55,212-2 30 µm, + 12.5µM ethanolamine)	3H-serotonin net release inhibition (%) (RBL-2H3 cells; WIN 55,212-2 30 µm, DNP.HSA alone)	EC50 (RBL-2H3 cells; inhibition of 3H-serotonin release, +anandamide (12.5 µM), read-out: ED50 (the source's name)) [µM]	EC50 (RBL-2H3 cells; inhibition of 3H-serotonin release, -anandamide, read-out: ED50 (the source's name)) [µM]	EC50 (RBL-2H3 cells; inhibition of serotonin release, 0.1% DMSO and 0.1% ethanol, read-out: ED50 (µm)) [µM]
CCCCC/C=C\C/C=C\C/C=C\C/C=C\CCCC(=O)NCCO [Anandamide, arachidonylethanolamide, reference compound]	95	99	30	no effect (3)	not effective	7	100	unable to affect serotonin release	–	–	–	–	–	–	–	–	–	–	–	–
Cc1c(C(=O)c2cccc3ccccc23)c2cccc3c2n1[C@H](CN1CCOCC1)CO3 [WIN 55,212-2, reference compound]	–	–	–	–	–	–	–	able to inhibit, in a concentration-dependent way	100 to 250	36	100	0	15	59	61	72	69	40	6.4	6.4
